Source: patent US3931262A, “Hydrophilic and difficultly volatile biocidal triorganotin compounds” (priority 1972, dated 1976)

How the values were obtained:
Type in all cases: cell-based
[1] = tested on: Escherichia coli RP 45410; experiment: Microbiological test
Text: (§1) In the test for microbiocidal activity the compounds listed hereinbelow yielded the values indicated in the following Table: No. Compound __________________________________________________________________________ 1 (n--C4 H9)3 Sn--S--CH2 --CH2 --COO.(CH 2 --CH2 --O--n H(n~9) 2 (C6 H5)3 Sn--S--(CH2)3 --SO3.Na CH3 .vertline. 3 --Sn--S--CH2 --CH2 --COO--(CH2 --CH2 --O)n.H(n ~9) .vertline. CH3 4 (n--C4 H9)3 Sn--S--CH2 --COO.H.N(CH2 CH2 OH)3 5 (n--C4 H9)3 Sn--S--(CH2)2 --COO.H.N(CH2 CH2 OH)3 6 (n--C4 H9)3 Sn--S--CH2 --CO.N(CH2 CH2 OH)2 __________________________________________________________________________

Poria vaporia CBS = experiment: Microbiological test
Text: as §1

[2] = tested on: Stachybotrys atra CBS 32465; experiment: Microbiological test
Text: as §1

Salmonella pullorum VBIZ = experiment: Microbiological test
Text: as §1

[3] = tested on: Pasteurella multocida K753; experiment: Microbiological test
Text: as §1

[4] = tested on: Escherichia coli NCTC 8195; experiment: Microbiological test
Text: as §1

[5] = tested on: Streptococcus faecalis NCTC 8619; experiment: Microbiological test
Text: as §1

[6] = tested on: Mycobacterium phlei CITM 61; experiment: Microbiological test
Text: as §1

[7] = tested on: Corynebacterium diphteroides FUR; experiment: Microbiological test
Text: as §1

Lenzites abietina CBS = experiment: Microbiological test
Text: as §1

Trichophyton gypseum CBS = experiment: Microbiological test
Text: as §1

[8] = tested on: Staphylococcus aureus SG 511 M6; experiment: Microbiological test
Text: as §1

[9] = tested on: Chaetomium globosum CBS 14851; experiment: Microbiological test
Text: as §1

[10] = tested on: Polystictus versicolor EMPA61; experiment: Microbiological test
Text: as §1

[11] = tested on: Bacillus subtilis NCTC 6460; experiment: Microbiological test
Text: as §1

[12] = tested on: Aspergillus flavus CBS 12662; experiment: Microbiological test
Text: as §1

[13] = tested on: Staphylococcus aureus SG 511; experiment: Microbiological test
Text: as §1

[14] = tested on: Penicillium funiculosum CEB 329631; experiment: Microbiological test
Text: as §1

[15] = tested on: Alternaria tenuis CBS 10426; experiment: Microbiological test
Text: as §1

Sarcina ureae SMB 81 = experiment: Microbiological test
Text: as §1

[16] = tested on: Arizona paracolon 7:1.7,8; experiment: Microbiological test
Text: as §1

[17] = tested on: Aspergillus niger ATCC 6275; experiment: Microbiological test
Text: as §1

Paecilomyces varioti CBS = experiment: Microbiological test
Text: as §1

[18] = tested on: Pullularia pullulans CBS 10767; experiment: Microbiological test
Text: as §1

Coniphora cerebella CBS = experiment: Microbiological test
Text: as §1

[19] = tested on: Streptococcus agalactiae M100; experiment: Microbiological test
Text: as §1

Candida albicans CBS = experiment: Microbiological test
Text: as §1

[20] = tested on: Penicillium expansum SMC 36; experiment: Microbiological test
Text: as §1

[21] = tested on: Pseudomonas fluorescens NCTC 4755; experiment: Microbiological test
Text: as §1

[22] = tested on: Trichoderma viride CEB 3334.2; experiment: Microbiological test
Text: as §1

Fusarium oxysporum CBS = experiment: Microbiological test
Text: as §1

[23] = tested on: Salmonella cholerae-suis VBIB

Row | SMILES | Activity range [1] | Activity range (Poria vaporia CBS) | Activity range [2] | Activity range (Salmonella pullorum VBIZ) | Activity range [3] | Activity range [4] | Activity range [5] | Activity range [6] | Activity range [7] | Activity range (Lenzites abietina CBS) | Activity range (Trichophyton gypseum CBS) | Activity range [8] | Activity range [9] | Activity range [10] | Activity range [11] | Activity range [12] | Activity range [13] | Activity range [14] | Activity range [15] | Activity range (Sarcina ureae SMB 81) | further results
1 | CCC[CH2][Sn]([CH2]CCC)([CH2]CCC)[S]CC(=O)[O-].OCC[NH+](CCO)CCO [Compound 4, triethylammonium S-tri-n-butyl tin-thioglycolate] | 30 ppm | 10 ppm | 10 ppm | > 300 ppm | 30 ppm | 30 ppm | 30 ppm | 30 ppm | 30 ppm | 10 ppm | 10 ppm | 30 ppm | 10 ppm | 100 ppm | 30 ppm | 10 ppm | 30 ppm | 30 ppm | 10 ppm | 30 ppm | Activity range [16]: > 300 ppm; Activity range [17]: 10 ppm; Activity range (Paecilomyces varioti CBS): 10 ppm; Activity range [18]: 10 ppm; Activity range (Coniphora cerebella CBS): 10 ppm; Activity range [19]: 30 ppm; Activity range (Candida albicans CBS): 10 ppm; Activity range [20]: 10 ppm; Activity range [21]: > 300 ppm; Activity range [22]: 10 ppm; Activity range (Fusarium oxysporum CBS): 10 ppm; Activity range [23]: > 300 ppm
2 | CCC[CH2][Sn]([CH2]CCC)([CH2]CCC)[S]CC(=O)N(CCO)CCO [Compound 6, S-tri-n-butyl tin-thioglycolic acid diethanolamide] | 30 ppm | 10 ppm | ≤ 3 ppm | > 300 ppm | 30 ppm | 30 ppm | 30 ppm | ≤ 1 ppm | ≤ 1 ppm | 10 ppm | 10 ppm | 3 ppm | ≤ 3 ppm | 30 ppm | ≤ 1 ppm | 10 ppm | 30 ppm | 30 ppm | ≤ 3 ppm | ≤ 1 ppm | Activity range [16]: > 300 ppm; Activity range [17]: 10 ppm; Activity range (Paecilomyces varioti CBS): ≤ 3 ppm; Activity range [18]: 10 ppm; Activity range (Coniphora cerebella CBS): 10 ppm; Activity range [19]: 3 ppm; Activity range (Candida albicans CBS): 10 ppm; Activity range [20]: 10 ppm; Activity range [21]: 30 ppm; Activity range [22]: 10 ppm; Activity range (Fusarium oxysporum CBS): 10 ppm; Activity range [23]: > 300 ppm
